Values of other authors in patent US20110257198A1, “PIPERIDINE DERIVATIVES USEFUL AS OREXIN ANTAGONISTS” (priority 2008, published 2011).
Ends that are not written are not given here.

How the values were obtained:
[1] = test system: freely-feeding rats; details: central administration, 4 hour time period
[2] = test system: rat; details: central administration at the onset of the normal sleep period (Hagan et al 1999)
[3] = test system: rats; details: rats (White et al 2005)
[4] = test system: rats; details: rats (Nair et al 2008)

Compound	increase of food intake over control rats receiving vehicle [1]	effect on arousal [2]	effect on hedonic eating [3]	effect on high-fat pellet self-administration [4]
orexin-A: polypeptide ligand for the orexin-1 receptor; an agonist of the orexin receptors (QPLPDCCRQKTCSCRLYELLHGAGNHAAGILTL; ends and bridges not checked; cysteine pairing not given here; UniProt O43612 34-66, looked up)	approximately four-fold	dose-related increase in arousal		
Cc1nc2ccc(NC(=O)Nc3ccnc4cccnc34)cc2o1 [SB334867]			potently reduced hedonic eating	attenuated high-fat pellet self-administration
